Experimental findings from patent US20130289083A1, “IDO Inhibitors” (priority 2007, published 2013) are described below.

In assay [1] the target is human IDO (Homo sapiens, UniProt P14902). The assay can be described thus: Cell based IDO/kynurenine assay in IDO-293-T-Rex cells. The settings on record: kynurenine production, 293T cell line stably expressing human IDO; values reported in ranges; read-out: hIDO EC50. Here is the method:
293-T-REx™ cells (Invitrogen) constitutively express a tet operator binding repressor protein and are maintained in DMEM, 10% FBS, 1× Penicillin+Streptomycin, 2 mM L-glutamine, 5 μg/mL blasticidin at 37° C. with a 5% CO2 in air atmosphere and typically split prior to confluency. Cells were passed by splitting the culture 1/10—by removing media by aspiration, washing 1× with PBS, incubating with 0.25% trypsin/EDTA until the cells detach, disbursing the cells in fresh growth media, and plating at 1/10 dilutions in fresh growth media. For long term cryopreservation, cells are detached from the plate as described above, collected by centrifugation, resuspended in freeze medium (growth medium, 10% DMSO), stored in 1.8 mL cyropreservation vials (˜2−5×10^6 cells per vial), in liquid nitrogen vapor storage tanks.
IDOl-expressing 293-T-Rex™ cell lines were generated by stable transfection of plasmid pcDNA-tetO-IDO expressing human IDO or murine IDO under the control of the doxycycline-inducible CMV-tet promoter. Transfected cells were selected in DBZ medium (DMEM, 10% FBS, 1× Penicillin+Streptomycin, 2 mM L-glutamine, 5 μg/mL blasticidin and 25 μg/ml Zeocin) at 37° C. with a 5% CO2 in air atmosphere. Individual clones were isolated by limiting dilution cloning from these populations.
[…]. The cells incubated in Neutral medium serve as negative control of the assay. The cells incubated in Induction medium and without inhibitor serve as the positive control of the assay. The incubation is carried out for 16 h at 37° C. in a cell culture incubator. 200 μL of medium are transferred to U-bottom polypropylene 96-well plates containing 25 μL of 30% TCA, incubated 30 minutes at 60° C. and centrifuged at 3400 g for 5 minutes. 150 μL of the clear supernatant is transferred to a polystyrene 96-well plate containing 50 μL of 4% (w/v) of p-dimethylaminobenzaldehyde in acetic acid, incubated for 10 min. Kynurenine concentration is determined by measuring the absorbance at 480 nm.
The conditions of the assay were as described in the examples.

For assay [2], the target named is purified human IDO protein (Homo sapiens, UniProt P14902). The assay can be described thus: Enzymatic IDO assay (kynurenine production, absorbance 480 nm). The following applies: enzymatic activity, values reported in ranges.
Sequence of purified human IDO protein (P14902 whole entry P110S/E119G): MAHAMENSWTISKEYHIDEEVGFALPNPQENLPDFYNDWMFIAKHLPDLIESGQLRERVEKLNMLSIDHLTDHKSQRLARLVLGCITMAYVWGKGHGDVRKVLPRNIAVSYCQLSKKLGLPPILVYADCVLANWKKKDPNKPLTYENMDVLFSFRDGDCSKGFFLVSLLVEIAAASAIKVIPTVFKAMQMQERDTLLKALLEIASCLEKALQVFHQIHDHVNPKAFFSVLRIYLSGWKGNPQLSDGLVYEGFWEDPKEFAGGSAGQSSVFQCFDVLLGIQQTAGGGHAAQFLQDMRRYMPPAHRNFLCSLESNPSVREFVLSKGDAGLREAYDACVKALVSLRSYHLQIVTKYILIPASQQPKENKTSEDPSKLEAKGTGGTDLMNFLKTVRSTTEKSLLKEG
[3] abbreviates: hIDO IC50, recombinant human IDO.
Setting [4] is: read-out: hIDO IC50, recombinant human IDO.

Read-outs that look alike come from different tables or passages of the source.

Sequence of human IDO (P14902 whole entry): as the sequence (P14902 whole entry P110S/E119G) above, with S110P, G119E counted along it

`CSC(=S)NC(C)(C)Cc1c[nH]c2ccccc12` [compound 28, Methyl 1-(1H-indol-3-yl)-2-methylpropan-2-ylcarbamodithioate]: in assay [1], the EC50 lay within 20 to 100 µM. In assay [2] (setting [3]), the IC50 lay in the range of 100 to 1000 µM.

Regarding `S=C(NCCc1c[nH]c2ccccc12)SCCc1c[nH]c2ccccc12` [compound 30, 2-(1H-Indol-3-yl)ethyl 2-(1H-indol-3-yl)ethylcarbamodithioate], the EC50 in assay [1] was 20 to 100 µM. The IC50 in assay [2] (setting [3]) is 100 to 1000 µM.

As for `CSC(=S)NCCc1c[nH]c2ccc(Cl)cc12` [compound 32], in assay [1], the EC50 was 20 to 100 µM. The IC50 in assay [2] (setting [4]) was in the range of 100 to 1000 µM.

Regarding `Cc1ccc2cc(CSC(=S)NCCc3c[nH]c4ccccc34)ccc2n1` [compound 38, (2-Methylquinolin-6-yl)methyl 2-(1H-indol-3-yl)ethylcarbamodithioate], the half-maximal effective concentration (EC50) in assay [1] lay in the range of 20 to 100 µM. Moreover, in assay [2] (setting [3]), the IC50 was 100 to 1000 µM.

`CSC(=S)NCCc1c[nH]c2ccc([N+](=O)[O-])cc12` [compound 40]: in assay [1], the EC50 is 100 to 1000 µM. For the same compound, the IC50 in assay [2] (setting [4]) fell in the range of 100 to 1000 µM.

`CSC(=S)NCCc1c[nH]c2c(Cl)cc(Cl)cc12` [compound 42]: in assay [1], the EC50 lay within 100 to 1000 µM. In addition, in assay [2] (setting [4]), the IC50 was in the range of 100 to 1000 µM.

As for `CSC(=S)NCCc1c[nH]c2cc(Cl)cc(Cl)c12` [compound 43], the EC50 in assay [1] lay within 100 to 1000 µM. Moreover, in assay [2] (setting [4]), the IC50 was 100 to 1000 µM.

As for `CSC(=S)NCCc1c[nH]c2cc(C(F)(F)F)cc(C(F)(F)F)c12` [compound 44], in assay [1], the EC50 was 1000 to 10000 µM. Further, the IC50 in assay [2] (setting [4]) was in the range of 100 to 1000 µM.

As to `CSC(=S)NCCc1c[nH]c2cc(F)c(F)c(F)c12` [compound 45], the EC50 in assay [1] lay in the range of 100 to 1000 µM. In addition, in assay [2] (setting [4]), the IC50 was 100 to 1000 µM.

With `Cc1cc2ccccc2cc1CCSC(=S)NCCc1c[nH]c2ccccc12` [compound 47, 2-(3-methylnaphthalen-2-yl)ethyl 2-(1H-indol-3-yl)ethylcarbamodithioate], in assay [1], the EC50 was 20 to 100 µM. The IC50 in assay [2] (setting [3]) fell in the range of 100 to 1000 µM.

Turning to `S=C(NCCc1c[nH]c2ccccc12)SCc1ccc2c(c1)OCO2` [compound 50, Benzo[d][1,3]dioxol-5-ylmethyl 2-(1H-indol-3-yl)ethylcarbamodithioate], in assay [1], the EC50 fell in the range of 20 to 100 µM. In addition, in assay [2] (setting [3]), the IC50 was 20 to 100 µM.

For the compound `S=C(NCCc1c[nH]c2ccccc12)SCc1noc2ccccc12` [compound 52, Benzo[d]isoxazol-3-ylmethyl 2-(1H-indol-3-yl)ethylcarbamodithioate], the EC50 in assay [1] lay within 20 to 100 µM. The IC50 in assay [2] (setting [3]) lay in the range of 20 to 100 µM.

Regarding `S=C(NCCc1c[nH]c2ccccc12)SCCc1ccc2c(c1)OCCO2` [compound 53, 2-(2,3-Dihydrobenzo[b][1,4]dioxin-6-yl)ethyl 2-(1H-indol-3-yl)ethyl-carbamodithioate], the EC50 in assay [1] was in the range of 20 to 100 µM. Moreover, the IC50 in assay [2] (setting [3]) was 100 to 1000 µM.

For `S=C(NCCc1noc2ccccc12)SCc1ccc2ccccc2c1` [compound 58], the EC50 in assay [1] lay in the range of 20 to 100 µM. Moreover, the IC50 in assay [2] (setting [4]) fell in the range of 100 to 1000 µM.

As to `S=C(NCCc1csc2ccccc12)SCc1ccc2ccccc2c1` [compound 60], the EC50 in assay [1] lay within 20 to 100 µM. Besides, the IC50 in assay [2] (setting [4]) fell in the range of 20 to 100 µM.

On to `S=C(NCCC1CCc2ccccc2O1)SCc1ccc2ccccc2c1` (centres unmarked) [compound 63, naphthalen-2-ylmethyl 2-(chroman-2-yl)ethylcarbamodithioate], for which the EC50 in assay [1] was 20 to 100 µM. In addition, in assay [2] (setting [3]), the IC50 lay in the range of 20 to 100 µM.

As for `S=C(NC1CSc2ccccc2C1)SCc1ccc2ccccc2c1` (centres unmarked) [compound 64, naphhalen-2-ylmethyl thiochroman-3-ylcarbamodithioate], in assay [1], the half-maximal effective concentration (EC50) is 20 to 100 µM. The IC50 in assay [2] (setting [4]) was 100 to 1000 µM.

For the compound `S=C(NCCc1c[nH]c2ccccc12)SCc1cc2c(cc1Br)OCO2` [compound 65, (6-Bromobenzo[d][1,3]dioxol-5-yl)methyl 2-(1H-indol-3-yl)ethylcarbamodithioate], the EC50 in assay [1] lay in the range of 20 to 100 µM. The half-maximal inhibitory concentration (IC50) in assay [2] (setting [3]) lay within 20 to 100 µM.

Regarding `CSC(=S)NCCc1ccc(C)cc1C` [compound 66, Methyl 2,4-dimethylphenethylcarbamodithioate], in assay [1], the EC50 was 100 to 1000 µM. In addition, the IC50 in assay [2] (setting [3]) is 100 to 1000 µM.

In general, EC50 refers to the concentration giving half of the maximal effect. As a reminder, the IC50 is the concentration that inhibits the measured activity by half.
